# Source: ChEMBL document CHEMBL1155424, “3D-QSAR and docking studies on transforming growth factor (TGF)-beta receptor 1 antagonists” (Bioorg Med Chem Lett, 2010)
# Target: T1, TGF-beta receptor type-1 (Homo sapiens) (UniProt P36897)
# T1 sequence (whole entry): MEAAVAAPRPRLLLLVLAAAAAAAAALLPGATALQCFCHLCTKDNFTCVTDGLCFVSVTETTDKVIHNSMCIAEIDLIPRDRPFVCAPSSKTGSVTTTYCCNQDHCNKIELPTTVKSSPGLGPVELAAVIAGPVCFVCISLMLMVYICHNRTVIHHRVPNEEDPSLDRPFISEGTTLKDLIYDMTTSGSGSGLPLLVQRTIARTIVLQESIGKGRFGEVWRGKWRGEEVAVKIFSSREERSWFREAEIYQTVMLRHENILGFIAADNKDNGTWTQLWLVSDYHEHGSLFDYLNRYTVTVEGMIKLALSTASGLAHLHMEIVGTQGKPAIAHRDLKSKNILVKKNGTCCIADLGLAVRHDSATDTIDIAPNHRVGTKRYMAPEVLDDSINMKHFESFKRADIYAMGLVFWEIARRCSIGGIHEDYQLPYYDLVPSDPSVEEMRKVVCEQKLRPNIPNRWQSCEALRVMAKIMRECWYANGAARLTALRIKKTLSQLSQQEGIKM
# Description: Antagonistic activity at TGFBR1
logIC50,logKi,Compound
-1.34,–,Cc1cccc(-c2[nH]c(CNc3cccc(C#N)c3)nc2-c2ccc3c(c2)OCO3)n1
-0.77,–,O=C(O)c1ccc(-c2nc(-c3ccc4c(c3)OCO4)c(-c3ccccn3)[nH]2)cc1
–,-1.32,CCc1cccc(-c2[nH]c(CNc3ccc(C#N)cc3)nc2-c2ccc3nccnc3c2)n1
–,-0.585,OCc1ccc(-c2nc(-c3ccccn3)c(-c3ccc4c(c3)OCO4)[nH]2)cc1
-1.33,–,Cc1cccc(-c2[nH]c(C(C)(C)C)nc2-c2ccc3c(c2)OCO3)n1
-1.92,–,Cc1cccc(-c2[nH]c(CNc3cccc(C#N)c3)nc2-c2ccc3nccnc3c2)n1
0.47,–,N#Cc1ccc(-c2nc(-c3ccc4c(c3)OCO4)c(-c3ccccn3)[nH]2)cc1
-1.38,–,Cc1cccc(-c2[nH]c(CNc3ccc(C#N)cc3)nc2-c2ccc3nccnc3c2)n1
-1.34,–,CCc1cccc(-c2[nH]c(CNc3cccc(C(N)=O)c3)nc2-c2ccc3c(c2)OCO3)n1
-1.62,–,Cc1cccc(-c2[nH]c(NCc3cccc(C#N)c3)nc2-c2ccc3c(c2)OCO3)n1
–,-2,Cc1cccc(-c2[nH]c(CNc3cccc(C(N)=O)c3)nc2-c2ccc3nccnc3c2)n1
-1.14,–,CCc1cccc(-c2[nH]c(CNc3cccc(C#N)c3)nc2-c2ccc3c(c2)OCO3)n1

# Second part, the compound before the results:
Compound,logIC50,logKi
CCc1cccc(-c2[nH]c(CNc3ccc(C#N)cc3)nc2-c2ccc3c(c2)OCO3)n1,-0.443,–
Cc1cccc(-c2[nH]c(CNc3ccc(C(N)=O)cc3)nc2-c2ccc3nccnc3c2)n1,-1.12,–
CCc1cccc(-c2[nH]c(CNc3cccc(C(N)=O)c3)nc2-c2ccc3nccnc3c2)n1,-1.82,–
Cc1cccc(-c2[nH]c(CNc3cccc(C(N)=O)c3)nc2-c2ccc3c(c2)OCO3)n1,-1.68,–
Cc1cccc(-c2[nH]c(NCc3ccc(C#N)cc3)nc2-c2ccc3c(c2)OCO3)n1,-0.815,–
CCc1cccc(-c2[nH]c(CNc3ccc(C(N)=O)cc3)nc2-c2ccc3c(c2)OCO3)n1,-0.415,–
Cc1cccc(-c2[nH]c(CNc3ccc(C(N)=O)cc3)nc2-c2ccc3c(c2)OCO3)n1,-0.582,–
CCc1cccc(-c2[nH]c(CNc3cccc(C#N)c3)nc2-c2ccc3nccnc3c2)n1,-0.924,–
Cc1cccc(-c2[nH]c(CNc3ccc(C#N)cc3)nc2-c2ccc3c(c2)OCO3)n1,-0.759,–

# Target: T2, TGF-beta receptor type-1 (Homo sapiens, UniProt P36897)
# T2 sequence (P36897 whole entry): T1 sequence (whole entry)
# Description: Antagonistic activity at TGFBR1
row,Compound,IC50 [nM]
1,Cc1cccc(-c2[nH]c(CNc3ccc(C#N)cc3)nc2-c2ccc3c(c2)OCO3)n1,171
